System: Ebola virus
Set-up: species or system mice
Settings: mouse, in vivo

SMILES | protection | effectiveness of single dose 4 days after challenge
Cc1cc(NCCCN(C)C)c2ccc3c(ccc4c(NCCCN(C)C)cc(C)nc43)c2n1.Cl.Cl.Cl.Cl [Compound 365, Quino[8,7-h]quinoline-1,7-diamine,N,N′-bis[3-(dimethylamino)propyl]-3,9-dimethyl-tetrahydrochloride] | 100% | –
N=C(N)c1ccc2oc(C=Cc3nc4ccc(C(=N)N)cc4[nH]3)cc2c1 [Compound 723, 2-[2-(5-carbamimidoyl-benzofuran-2-yl)-vinyl]-3H-benzoimidazole-5-carboxamidine] | – | effectiveness
